Marks after values point to notes of the source that are not given here.
Tests used:
[1] = Pharmacokinetics study in rabbits after oral Panax notoginseng extract with or without Borneol (plasma, SPE-HPLC-MS); type: in vivo, New Zealand rabbits
Protocol: Liquid chromatography was carried out on an Agilent 1100 HPLC system with an auto sampler, a quaternary pump and a vacuum degasser (Waldoboro, Frankfurt, Germany). Operations were controlled by Agilent Chemstation 4.2 software (Littleforts, Philadelphia, USA). Separations were achieved on a reversed-phase HPLC column (Zorbax SB-C18 150 × 2.1 mm, 5.0 μm particle size). A solution of acetonitrile and water (V : V, 20 : 80) with 0.1% (V : V) ammonium formate was used as the mobile phase. The flow rate was set at 0.3 mL·min^−1 and the column temperature was 25°C. Under these conditions, NGR1, GRg1, and GRe in plasma samples were separated efficiently without any interferences.
MS^n detection was performed on an Agilent SL trap MS system (Waldoboro, Frankfurt, Germany). The ion source-dependent (electrospray ionization) conditions were the same for all analyses with a spraying voltage of −4500 V in the negative ion mode. The pressure of the nebulizing gas (nitrogen) was set at 35 p.s.i. The flow rate of the drying gas (nitrogen) was set at 7.0 L·min^−1 with the temperature of 325°C. The collision gas (He) for the MS^n mode at trap was set at flow of 4 (instrument unit). The voltage of the capillary was set at 4000 V, and its end plate offset was −500 V. Scan range was from 500 to 1500 m/z.
Frozen plasma and tissue samples were thawed in a water bath at 37°C and were then vortexed followed by centrifuging at 5000 r·min^−1 for 5 min. An aliquot of 1.0 mL of the supernatant from each sample was loaded onto C18 Bond Elute Solid phase extraction (SPE) cartridges (1000 mg, 1 cc reservoir, Varian, Harbor City, CA, USA) pretreated with 2.0 mL hexane, isopropanol, methanol, and water, sequentially. The SPE cartridges were then washed with 1.0 mL water, 20% methanol/water solution, 40% methanol/water solution, and 60% methanol/water solution, sequentially. Finally, analytes were eluted twice with 1.0 mL of 70% methanol/water solution. The eluant was evaporated to dryness under nitrogen. The residues were then reconstituted in 1.0 mL mobile phase. An aliquot of 10 μL was injected into the LC-MS system.
Eighteen rabbits were randomly divided into three groups of 6 subjects and were orally given 3.0 mL·kg^−1 normal saline, 3.0 mL·kg^−1 Panax notoginseng extract, and 3.0 mL·kg^−1 Panax notoginseng extract combined with Borneol, respectively. Plasma samples were collected in heparinized tubes from the central ear artery at 0.0, 5.0, 10.0, 20.0, 30.0, 45.0, 60.0, 75.0, 90.0, 120.0, 180.0, 300.0 and 480.0 min after dose. After each sampling, the same volume of 0.9% saline solution was injected from the ear vein to compensate the loss of blood. The plasma obtained was frozen at −70°C for storage and was processed prior to analysis with the proposed method as described in Section 2.6.
Statistical analysis of the biological data was performed using the Student's t-test. The drug analysis system 2.0 (DAS 2.0, T.C.M., Shanghai, China) was used to calculate the pharmacokinetic parameters, such as the area under curve (AUC), the maximum plasma concentration (C max), the time needed to reach the maximum plasma concentration (t max) and the half-life of absorption, and distribution and elimination (t 1/2Ka, t 1/2α, t 1/2β).

[2] = Stability in plasma samples and tissue homogenates of rabbits; type: physicochemical
Protocol: The precision of the assay was determined for the quality control (QC) plasma and tissue […] Intraday precision and accuracy were determined via repeated analysis of the QC plasma and tissue samples within one day (n = 5). Interday precision and accuracy were determined via repeated analysis on five consecutive days. The concentration of each sample was determined using the prepared calibration curve and analyzed on the same day. All stabilities were evaluated at different concentration levels. Short-term stability of NGR1, GRg1, and GRe were assessed by analyzing QC samples kept at 4°C for 4–24 h. Freeze-thaw stability was evaluated at three consecutive freeze-thaw cycles. Long-term stability was studied by analyzing samples during a period of 8 weeks of storage at −70°C.
The stability studies were performed by evaluating small variations in three different conditions.

[3] = oral 3.0 mL·kg^−1 Panax notoginseng extract
[4] = oral 3.0 mL·kg^−1 Panax notoginseng extract combined with Borneol

AUC0–t [1, 3]: 162.1 ± 42.7 mg/L/min | AUC0–∞ [1, 3]: 164.0 ± 51.8 mg/L/min | C max [1, 3]: 2.12 ± 0.46 mg/L | CL/F [1, 3]: 0.488 ± 0.091 L/min/kg | K 10 [1, 3]: 0.018 ± 0.005 min⁻¹ | K 12 [1, 3]: 0.000 ± 0.000 min⁻¹ | K 21 [1, 3]: 0.014 ± 0.007 min⁻¹ | K a [1, 3]: 0.060 ± 0.004 min⁻¹ | T lag [1, 3]: 2.38 ± 0.49 min | T max [1, 3]: 45.0 ± 9.8 min | V/F [1, 3]: 27.3 ± 8.6 L/kg | t 1/2Ka [1, 3]: 11.6 ± 2.4 min | t 1/2α [1, 3]: 38.5 ± 4.5 min | t 1/2β [1, 3]: 47.9 ± 8.1 min | α [1, 3]: 0.018 ± 0.008 min⁻¹ | β [1, 3]: 0.014 ± 0.003 min⁻¹ | AUC0–t [1, 4]: 306.3 ± 82.9 mg/L/min | AUC0–∞ [1, 4]: 395.3 ± 101.4 mg/L/min | C max [1, 4]: 1.62 ± 0.30 mg/L | CL/F [1, 4]: 0.506 ± 0.027 L/min/kg | K 10 [1, 4]: 0.009 ± 0.002* min^−1 | K 12 [1, 4]: 0.015 ± 0.005** min^−1 | K 21 [1, 4]: 0.011 ± 0.002 min⁻¹ | K a [1, 4]: 0.037 ± 0.005** min^−1 | T lag [1, 4]: 1.04 ± 0.21 min | T max [1, 4]: 30.0 ± 8.0 min | V/F [1, 4]: 58.8 ± 6.9 L/kg | t 1/2Ka [1, 4]: 18.8 ± 3.1 min | t 1/2α [1, 4]: 28.4 ± 3.2 min | t 1/2β [1, 4]: 69.3 ± 5.2 min | α [1, 4]: 0.024 ± 0.005 min⁻¹ | β [1, 4]: 0.010 ± 0.003* min^−1 | Remaining, Short-term stability ([2]; brain homogenate, QC 0.5 μg·mL^−1, 4°C for 4–24 h): 92.3 ± 9.4% | Remaining, Long-term stability ([2]; brain homogenate, QC 0.5 μg·mL^−1, 8 weeks at −70°C): 101.8 ± 6.8% | Remaining, Freeze-thaw stability ([2]; brain homogenate, QC 0.5 μg·mL^−1, three freeze-thaw cycles): 92.8 ± 6.9% | Remaining, Short-term stability ([2]; brain homogenate, QC 5.0 μg·mL^−1, 4°C for 4–24 h): 98.4 ± 4.4% | Remaining, Long-term stability ([2]; brain homogenate, QC 5.0 μg·mL^−1, 8 weeks at −70°C): 90.0 ± 9.5% | Remaining, Freeze-thaw stability ([2]; brain homogenate, QC 5.0 μg·mL^−1, three freeze-thaw cycles): 92.2 ± 8.5% | Remaining, Short-term stability ([2]; brain homogenate, QC 50.0 μg·mL^−1, 4°C for 4–24 h): 103.5 ± 9.2% | Remaining, Long-term stability ([2]; brain homogenate, QC 50.0 μg·mL^−1, 8 weeks at −70°C): 99.0 ± 5.3% | Remaining, Freeze-thaw stability ([2]; brain homogenate, QC 50.0 μg·mL^−1, three freeze-thaw cycles): 95.2 ± 11.4% | Remaining, Short-term stability ([2]; heart homogenate, QC 0.5 μg·mL^−1, 4°C for 4–24 h): 98.2 ± 6.7% | Remaining, Long-term stability ([2]; heart homogenate, QC 0.5 μg·mL^−1, 8 weeks at −70°C): 103.6 ± 6.5% | Remaining, Freeze-thaw stability ([2]; heart homogenate, QC 0.5 μg·mL^−1, three freeze-thaw cycles): 92.8 ± 6.8% | Remaining, Short-term stability ([2]; heart homogenate, QC 5.0 μg·mL^−1, 4°C for 4–24 h): 94.8 ± 9.5% | Remaining, Long-term stability ([2]; heart homogenate, QC 5.0 μg·mL^−1, 8 weeks at −70°C): 92.9 ± 4.2% | Remaining, Freeze-thaw stability ([2]; heart homogenate, QC 5.0 μg·mL^−1, three freeze-thaw cycles): 102.5 ± 10.6% | Remaining, Short-term stability ([2]; heart homogenate, QC 50.0 μg·mL^−1, 4°C for 4–24 h): 100.3 ± 7.5% | Remaining, Long-term stability ([2]; heart homogenate, QC 50.0 μg·mL^−1, 8 weeks at −70°C): 96.6 ± 6.7% | Remaining, Freeze-thaw stability ([2]; heart homogenate, QC 50.0 μg·mL^−1, three freeze-thaw cycles): 96.7 ± 8.7% | Remaining, Short-term stability ([2]; kidney homogenate, QC 0.5 μg·mL^−1, 4°C for 4–24 h): 92.4 ± 4.3% | Remaining, Long-term stability ([2]; kidney homogenate, QC 0.5 μg·mL^−1, 8 weeks at −70°C): 91.1 ± 5.4% | Remaining, Freeze-thaw stability ([2]; kidney homogenate, QC 0.5 μg·mL^−1, three freeze-thaw cycles): 92.2 ± 7.5% | Remaining, Short-term stability ([2]; kidney homogenate, QC 5.0 μg·mL^−1, 4°C for 4–24 h): 95.8 ± 5.6% | Remaining, Long-term stability ([2]; kidney homogenate, QC 5.0 μg·mL^−1, 8 weeks at −70°C): 94.3 ± 2.8% | Remaining, Freeze-thaw stability ([2]; kidney homogenate, QC 5.0 μg·mL^−1, three freeze-thaw cycles): 95.4 ± 8.9% | Remaining, Short-term stability ([2]; kidney homogenate, QC 50.0 μg·mL^−1, 4°C for 4–24 h): 90.8 ± 3.7% | Remaining, Long-term stability ([2]; kidney homogenate, QC 50.0 μg·mL^−1, 8 weeks at −70°C): 96.8 ± 9.5% | Remaining, Freeze-thaw stability ([2]; kidney homogenate, QC 50.0 μg·mL^−1, three freeze-thaw cycles): 80.9 ± 6.7% | Remaining, Short-term stability ([2]; liver homogenate, QC 0.5 μg·mL^−1, 4°C for 4–24 h): 95.1 ± 3.1% | Remaining, Long-term stability ([2]; liver homogenate, QC 0.5 μg·mL^−1, 8 weeks at −70°C): 92.6 ± 9.1% | Remaining, Freeze-thaw stability ([2]; liver homogenate, QC 0.5 μg·mL^−1, three freeze-thaw cycles): 98.9 ± 7.9% | Remaining, Short-term stability ([2]; liver homogenate, QC 5.0 μg·mL^−1, 4°C for 4–24 h): 94.3 ± 6.7% | Remaining, Long-term stability ([2]; liver homogenate, QC 5.0 μg·mL^−1, 8 weeks at −70°C): 96.6 ± 6.4% | Remaining, Freeze-thaw stability ([2]; liver homogenate, QC 5.0 μg·mL^−1, three freeze-thaw cycles): 103.8 ± 8.2% | Remaining, Short-term stability ([2]; liver homogenate, QC 50.0 μg·mL^−1, 4°C for 4–24 h): 95.4 ± 8.6% | Remaining, Long-term stability ([2]; liver homogenate, QC 50.0 μg·mL^−1, 8 weeks at −70°C): 100.9 ± 5.6% | Remaining, Freeze-thaw stability ([2]; liver homogenate, QC 50.0 μg·mL^−1, three freeze-thaw cycles): 99.0 ± 5.0% | Remaining, Short-term stability ([2]; lung homogenate, QC 0.5 μg·mL^−1, 4°C for 4–24 h): 91.2 ± 5.4% | Remaining, Long-term stability ([2]; lung homogenate, QC 0.5 μg·mL^−1, 8 weeks at −70°C): 97.6 ± 6.8% | Remaining, Freeze-thaw stability ([2]; lung homogenate, QC 0.5 μg·mL^−1, three freeze-thaw cycles): 95.8 ± 9.8% | Remaining, Short-term stability ([2]; lung homogenate, QC 5.0 μg·mL^−1, 4°C for 4–24 h): 96.8 ± 8.3% | Remaining, Long-term stability ([2]; lung homogenate, QC 5.0 μg·mL^−1, 8 weeks at −70°C): 89.8 ± 4.6% | Remaining, Freeze-thaw stability ([2]; lung homogenate, QC 5.0 μg·mL^−1, three freeze-thaw cycles): 91.9 ± 9.3% | Remaining, Short-term stability ([2]; lung homogenate, QC 50.0 μg·mL^−1, 4°C for 4–24 h): 95.6 ± 5.9% | Remaining, Long-term stability ([2]; lung homogenate, QC 50.0 μg·mL^−1, 8 weeks at −70°C): 91.6 ± 9.8% | Remaining, Freeze-thaw stability ([2]; lung homogenate, QC 50.0 μg·mL^−1, three freeze-thaw cycles): 96.9 ± 7.5% | Remaining, Short-term stability ([2]; plasma, QC 0.5 μg·mL^−1, 4°C for 4–24 h): 98.0 ± 6.2% | Remaining, Long-term stability ([2]; plasma, QC 0.5 μg·mL^−1, 8 weeks at −70°C): 100.0 ± 8.7% | Remaining, Freeze-thaw stability ([2]; plasma, QC 0.5 μg·mL^−1, three freeze-thaw cycles): 90.4 ± 5.9% | Remaining, Short-term stability ([2]; plasma, QC 5.0 μg·mL^−1, 4°C for 4–24 h): 96.0 ± 8.4% | Remaining, Long-term stability ([2]; plasma, QC 5.0 μg·mL^−1, 8 weeks at −70°C): 94.0 ± 6.8% | Remaining, Freeze-thaw stability ([2]; plasma, QC 5.0 μg·mL^−1, three freeze-thaw cycles): 92.8 ± 6.4% | Remaining, Short-term stability ([2]; plasma, QC 35.0 μg·mL^−1, 4°C for 4–24 h): 99.8 ± 3.3% | Remaining, Long-term stability ([2]; plasma, QC 35.0 μg·mL^−1, 8 weeks at −70°C): 97.0 ± 5.3% | Remaining, Freeze-thaw stability ([2]; plasma, QC 35.0 μg·mL^−1, three freeze-thaw cycles): 96.6 ± 5.5%
SMILES: CC(C)=CCC[C@](C)(O[C@@H]1O[C@H](CO)[C@@H](O)[C@H](O)[C@H]1O)[C@H]1CC[C@]2(C)[C@@H]1[C@H](O)C[C@@H]1[C@@]3(C)CC[C@H](O)C(C)(C)[C@@H]3[C@@H](O[C@@H]3O[C@H](CO)[C@@H](O)[C@H](O)[C@H]3O[C@@H]3OC[C@@H](O)[C@H](O)[C@H]3O)C[C@]12C [NGR1, notoginsenoside R1]

From paper PMC3626250, “Effects of Borneol on Pharmacokinetics and Tissue Distribution of Notoginsenoside R1 and Ginsenosides Rg1 and Re in Panax notoginseng in Rabbits” (Journal of Analytical Methods in Chemistry, 2013)
